Experimental data taken from patent US11723894B2, “Combination product for the treatment of neurological and/or psychiatric disorders” (Consejo Superior de Investigaciones Cientificas (CSIC), priority 2017, dated 2023).

Experiments:
[1] = tested on: hippocampal subgranular neurogenic niche; assay: Short-term (4 days) in vivo activation of the hippocampal subgranular neurogenic niche (BrdU); parameters: species or system C57BL/6 mice; settings: DMT 0.1 μg/animal, lateral ventricle, sacrificed day 5
Method: Adult male C57BL/6 mice (obtained from Charles River Labs) were injected in the lateral ventricle (coordinates: from bregma, posterior −1 mm, lateral +1.3 mm, ventral +2 mm, according to the atlas of Paxinos and Franklin (Paxinos G, Franklin KBJ. The Mouse Brain in Stereotaxic Coordinates. 4. San Diego: Academic Press; 2012)), using a stereotaxic apparatus (Kopf Instruments, CA) with DMT (0.1 μg/animal), alone or in combination with the selective Sigma-1 BD1063 (BD, 0.2 μg/animal, Sigma, catalog number SML0276), the mixed 5-HT2A/1A receptor antagonist methiothepin (Met, 0.2 μg/animal, Sigma catalog number M149), or the selective 5-HT1A receptor antagonist WAY100635 (WAY, 0.2 μg/animal, ABCAM catalog number ab120550). Prior to the injection, mice were anesthetized by intraperitoneal injection of ketamine (60 mg/kg) and medetomidine (0.125 mg/kg). […] The boundaries of these nervous system regions were determined with reference to internal anatomic landmarks (Paxinos G, Franklin KBJ. The Mouse Brain in Stereotaxic Coordinates. 4. San Diego: Academic Press; 2012). For DG area selection, images were analyzed using computer-assisted image analysis software (Soft Imaging System Corporation, Lakewood, Colo., http://www.soft-imaging.com). Positive cells, which intersected the uppermost focal plane (exclusion plane) and the lateral exclusion boundaries of the counting frames, were not counted. […]

astrocytes = assay: LPS-induced nitrite production (Griess) in primary astrocyte cultures; type: cell-based, rat
Method: (§1) Example 8: DMT, DET, DPT and 5-MeO-DMT administration in vitro prevents inflammation in rat primary glial cells. […] Rat primary glial cell cultures were prepared from the cerebral cortex of 3 day old rats which were dissected, dissociated, and incubated with 0.25% trypsin/EDTA at 37° C. for 1 h. After centrifugation, the pellet was washed three times with HBSS (Gibco) and the cells were plated in poly-D-lysine (20 μg/mL) pretreated flasks (75 cm2). After 7-10 days, the flasks were agitated in an orbital shaker for 4 h at 230 rpm at 37° C. and non-adherent microglial cells were isolated and plated. Then Dulbecco's Modified Eagle's Medium (DMEM) was added to the flasks, which were agitated in a horizontal shaker at 260 rpm at 37° C. After overnight agitation, the supernatant (oligodendrocytes and some remaining microglial cells) was removed, and astrocytes (adherent cells) were collected. The purity of the cultures was >95%, as determined by immunofluorescence analysis using an anti-glial fibrillary acidic protein (GFAP; clone G-A-5; Sigma-Aldrich) antibody to identify astrocytes, and an anti-Iba1 (Wako Catalog No. 019-19741) antibody to identify microglial cells. On attaining semiconfluence, cells were administered each of the test tryptamines at 1 μM or with the combination test tryptamine+Ritanserin (Rit at 1 μM) 2 h before exposure to lipopolysaccharide (LPS, 10 μg/mL; Sigma-Aldrich) and kept in the presence of each drug or drug combination for 24 h. In combination studies, Rit was added to medium 1h before administration of the corresponding tryptamine. Vehicle-treated cultures were used as a control. After the 24 h drug exposure period, cultures were tested to assess nitrite release. To quantify nitrite concentrations in culture medium, supernatants of glial cultures were collected and mixed with an equal volume of Griess reagent (Sigma-Aldrich). Samples were then incubated at room temperature for 15 min and absorbance was measured at 540 nm on a microplate reader. Results are expressed as the mean±SEM of six replications in three different experiments

microglial cells = assay: LPS-induced nitrite production (Griess) in primary microglial cultures; type: cell-based, rat; settings: microglia
Method: as §1

[2] = Rit 1 μM 1 h before tryptamine 1 μM, then LPS 10 μg/mL 24 h
[3] = tryptamine 1 μM before LPS 10 μg/mL, 24 h, vs LPS alone

In the case of `CN(C)CCc1c[nH]c2ccccc12` [DMT, N,N-dimethyltryptamine], the “BrdU staining (proliferation) in the hippocampus” value [1] was “increases”, the “reduction of LPS-induced nitrite in the presence of Rit” value (astrocytes; [2]) was “maintained” and the LPS-induced nitrite increases (astrocytes; [3]) was “significantly reduced”. For the same compound, the “reduction of LPS-induced nitrite in the presence of Rit” value (microglial cells; [2]) was “maintained” and the LPS-induced nitrite increases (microglial cells; [3]) was “significantly reduced”.
